In US4902505A, “Chimeric peptides for neuropeptide delivery through the blood-brain barrier” (Alkermes, priority 1988, dated 1990):

What was measured:
blood-brain barrier = conditions: general statement, no test described; cited from earlier work
[1] = tested on: isolated bovine brain microvessels; assay: Radioreceptor assay (uptake) using isolated bovine brain microvessels; assay type: cell-based; conditions: up to 60 minutes incubation at room temperature; FIG. 1
Procedure: Somatostatin was obtained from Peninsula Laboratories and tritiated by reductive methylation using ^3 H-sodium borohydride. […] The two compounds were coupled together using SPDP as described in Example 1. Bovine brain microvessels were isolated as described in Pardridge, et al., "Rapid Sequestration And Degradation Of Somatostatin Analogues By Isolated Brain Microvessels", (Journal of Neurochemistry, Vol. 44, No. 4, 1985, pp. 1178-1184).
^3 H-somatostatin was added to one set of microvessels for up to 60 minutes incubation at room temperature. In another set of incubations, the ^3 H-somatostatin-^125 I-insulin chimera was also added. […] The uptake of the free somatostatin likely represents nonspecific binding as described in the article mentioned above (Journal of Neurochemistry, Vol. 44, No. 4, 1985).
Previous studies have shown that the receptor-mediated endocytosis of peptides in the isolated brain microvessels is a reliable index of the in vivo blood-brain barrier receptor transport activity of peptides in vivo (see my previously-mentioned article in Endocrine Reviews, Vol. 7, No. 3, Aug. 1986).

| Compound | transport through the blood-brain barrier (blood-brain barrier) | change of uptake with time [1] |
| --- | --- | --- |
| C[C@H](N)C(=O)NCC(=O)N[C@H]1CSSC[C@@H](C(=O)O)NC(=O)[C@H](CO)NC(=O)[C@H]([C@@H](C)O)NC(=O)[C@H](Cc2ccccc2)NC(=O)[C@H]([C@@H](C)O)NC(=O)[C@H](CCCCN)NC(=O)[C@H](Cc2c[nH]c3ccccc23)NC(=O)[C@H](Cc2ccccc2)NC(=O)[C@H](Cc2ccccc2)NC(=O)[C@H](CC(N)=O)NC(=O)[C@H](CCCCN)NC1=O [somatostatin] | not transported | no increase in time |
| cationized albumin: bovine serum albumin covalently coupled with hexamethylene-diamine | enters the brain rapidly | – |
